From PMC8778818, “Synthesis, Structural Characterization and Anticancer Activity of New 5-Trifluoromethyl-2-thioxo-thiazolo[4,5-d]pyrimidine Derivatives” (Pharmaceuticals, 2022)

Tests used:
C32 = test: MTT cell viability assay, C32; assay type: cell-based, human; conditions: Homo sapiens, 72 h; for IC50: C32, MTT, mean ± SD
Procedure: (§1) Twelve compounds (2a-e, 3a-d and 4a-c) at a concentration range of 50–5000 μM were tested for their antiproliferative potential against four human cancer cell lines (A375—melanotic melanoma, C32—amelanotic melanoma, DU145—prostate cancer androgen-independent, MCF-7/WT—breast adenocarcinoma) and two normal cell lines: Chinese Hamster Ovary (CHO-K1) and immortalized human keratinocytes from histologically normal skin (HaCaT).
(§2) To determine the antiproliferative activity of newly synthesized compounds, the following cell lines were used: human melanotic melanoma cell line (A375), human amelanotic melanoma cell line (C32), human breast adenocarcinoma cell line (MCF-7/WT), human prostate cancer androgen-independent (DU145) and two normal cell lines: hamster ovarian (CHO-K1) and immortalized human keratinocytes from histologically normal skin (HaCaT). The cells were obtained from the cell line bank of the Department of Molecular and Cellular Biology, Wroclaw Medical University. A375, C32, MCF-7/WT, DU145 and HaCaT cells were grown in a monolayer cultured in Dulbecco’s Modified Eagle’s Medium (DMEM, Sigma-Aldrich, Poznań, Poland), supplemented with 10% of fetal bovine serum (FBS, Gibco, Paisley, UK) and 1% of antibiotics (penicillin/streptomycin, Sigma-Aldrich) and CHO-K1 were grown in HAM’s F-12 medium (Sigma-Aldrich), supplemented with 10% fetal bovine serum (FBS, Gibco) and 1% of antibiotics (penicillin/streptomycin, Sigma-Aldrich). Cell lines were cultured in the polystyrene flasks 25 or 75 cm^2 (Thermo Fisher Scientific, Waltham, MA, USA), which were stored in 37 °C and 5% CO2 in a humidified 95% atmosphere (SteriCult, Thermo Scientific, Alab). The cell medium was exchanged twice a week. The exponentially growing cells were used throughout the experiments. The cells were rinsed with phosphate-buffered saline (PBS, Sigma-Aldrich) and trypsinized by Trypsin-EDTA 0.25% solution (Sigma-Aldrich).
(§3) The influence of the compounds was performed in a monolayer culture on cancer and normal cells. Compounds were initially dissolved in DMSO; further dilutions of the compound were performed in Dulbecco’s Modified Eagle’s Medium supplemented with 10% FBS. Compounds were tested in a 50–5000 µM concentration range. In the in vitro experiments, the concentrations of DMSO in the final solution of the compounds were used 0.05%; 0.1%; 0.5%; 1%, respectively.
(§4) Cell viability was determined using the MTT colorimetric assay. All cell lines were seeded into 96-well plates to a density of 3 × 10^4 cells/well. After 24 h, the culture supernatants were removed and appropriate dilutions of compounds in the culture medium (200 µL/well) were added to the cells’ monolayer cultures and incubated for an additional 72 h. After 72 h of exposition to the compounds and the removal of the culture medium, cell viability was determined by reducing the yellow dye 3-(4,5-dimethyl-2-thiazol)-2,5-diphenyl-2H-tetrazolium bromide (MTT assay, Sigma Saint Louis, MO, USA; In Vitro Toxicology Assay) to a blue formazan product. The absorbance of the resulting solutions in three duplicate experiments was measured at the wavelength of 560 nm in a microplate reader (EnSpire, Perkin Elmer, Kraków, Poland). MTT assay is a colorimetric method that estimates the rate of metabolism in viable cells. Absorbance is directly proportional to the number of viable cells. All the experiments were performed three times and the mean absorbance values were calculated. The methodology for the evaluation of the growth of human cancer and normal cells was described previously. The cell viability in each group was expressed as a percentage of control (untreated) cells.

HaCaT = test: MTT cell viability assay, HaCaT; assay type: cell-based, human; conditions: Homo sapiens; HaCaT normal cells, MTT, 72 h, mean ± SD
Procedure: as §1, §2, §3, §4

[1] = system: A375, C32, DU145, MCF-7/WT, CHO-K1 and HaCaT cell lines; test: MTT cell viability assay, all six cell lines; assay type: cell-based; conditions: mean over the six cell lines; read-out: Mean A: the mean IC50 for the given compound
Procedure: as §1, §2, §3, §4

HL-60(TB) = test: NCI-60 screen, Leukemia HL-60(TB); assay type: cell-based, human; conditions: for Growth of Cells (%): 10^−5 M one dose
MOLT-4 = test: NCI-60 screen, Leukemia MOLT-4; assay type: cell-based, human; conditions: for Growth of Cells (%): MOLT-4, 10^−5 M one dose
SR = test: NCI-60 screen, Leukemia SR; assay type: cell-based, human
NCI-H23 = test: NCI-60 screen, Non-Small Cell Lung Cancer NCI-H23; assay type: cell-based, human; conditions: for Growth of Cells (%): NCI-H23, 10^−5 M one dose
COLO-205 = test: NCI-60 screen, Colon Cancer COLO-205; assay type: cell-based, human; conditions: for Growth of Cells (%): COLO-205, 10^−5 M one dose
HT29 = test: NCI-60 screen, Colon Cancer HT29; assay type: cell-based, human; conditions: for Growth of Cells (%): HT29, 10^−5 M one dose
SNB-75 = test: NCI-60 screen, CNS Cancer SNB-75; assay type: cell-based, human
MALME-3M = test: NCI-60 screen, Melanoma MALME-3M; assay type: cell-based, human; conditions: for Growth of Cells (%): 10^−5 M one dose
UACC-257 = test: NCI-60 screen, Melanoma UACC-257; assay type: cell-based; conditions: for Growth of Cells (%): UACC-257, 10^−5 M one dose
SK-OV-3 = test: NCI-60 screen, Ovarian Cancer SK-OV-3; assay type: cell-based, human; conditions: for Growth of Cells (%): SK-OV-3, 10^−5 M one dose
A498 = test: NCI-60 screen, Renal Cancer A498; assay type: cell-based, human; conditions: for Growth of Cells (%): A498, 10^−5 M one dose
ACHN = test: NCI-60 screen, Renal Cancer ACHN; assay type: cell-based, human; conditions: for Growth of Cells (%): 10^−5 M one dose
UO-31 = test: NCI-60 screen, Renal Cancer UO-31; assay type: cell-based; conditions: for Growth of Cells (%): UO-31, 10^−5 M one dose
RXF 393 = test: NCI-60 screen, Renal Cancer RXF 393; assay type: cell-based, human; conditions: for Growth of Cells (%): RXF 393, 10^−5 M one dose
PC-3 = test: NCI-60 screen, Prostate C. PC-3; assay type: cell-based; conditions: for Growth of Cells (%): PC-3, 10^−5 M one dose
[2] = Homo sapiens, five doses 10^−4–10^−8 M
[3] = Homo sapiens, MOLT-4, five doses 10^−4–10^−8 M
[4] = Homo sapiens, five doses 10^−4–10^−8 M, read-out: log LC50 (the source's name) (converted)
[5] = Homo sapiens, COLO-205, five doses 10^−4–10^−8 M
[6] = Homo sapiens, SNB-75, five doses 10^−4–10^−8 M

O=c1[nH]c(C(F)(F)F)nc2c1sc(=S)n2-c1ccccc1 [Compound 2b, 3-phenyl-2-thioxo-5-(trifluoromethyl)-2,3-dihydro[1, 3]thiazolo[4,5-d]pyrimidin-7(6H)-one]
IC50 (C32): 496 ± 20.4 µM
IC50 (HaCaT): 712 ± 29.3 µM
IC50 [1]: 468 µM
Growth of Cells (%) (HL-60(TB)): 149.39%
Growth of Cells (%) (MOLT-4): 117.56%
Growth of Cells (%) (SR; 10^−5 M one dose): 105.93%
Growth of Cells (%) (NCI-H23): 112.30%
Growth of Cells (%) (COLO-205): 114.26%
Growth of Cells (%) (HT29): 100.96%
Growth of Cells (%) (SNB-75; SNB-75, 10^−5 M one dose): 91.21%
Growth of Cells (%) (MALME-3M): 121.70%
Growth of Cells (%) (UACC-257): 107.08%
Growth of Cells (%) (SK-OV-3): 108.53%
Growth of Cells (%) (A498): 90.58%
Growth of Cells (%) (ACHN): 110.42%
Growth of Cells (%) (UO-31): 91.22%
Growth of Cells (%) (RXF 393): 95.34%
Growth of Cells (%) (PC-3): 100.88%

FC(F)(F)c1nc(Cl)c2sc(=S)n(-c3ccccc3)c2n1 [Compound 3b, 7-chloro-3-phenyl-5-(trifluoromethyl)[1, 3]thiazolo[4,5-d]pyrimidine-2(3H)-thione]
IC50 (C32): 24.4 ± 0.5 µM
viability at 50 µM (C32; C32 amelanotic melanoma, 50 µM): 20%
IC50 (HaCaT): 33.5 ± 0.7 µM
IC50 [1]: 43.8 µM
Growth of Cells (%) (HL-60(TB)): −41.20%
GI50 (HL-60(TB); [2]): 1.55 µM
log TGI (HL-60(TB); five doses 10^−4–10^−8 M): −5.41 log M
GI50 (MOLT-4; [3]): 3.09 µM
LC50 (MOLT-4; [3]): > 100 µM
Growth of Cells (%) (MOLT-4): −27.71%
log TGI (MOLT-4; MOLT-4, five doses 10^−4–10^−8 M): −5.07 log M
GI50 (SR; [2]): 0.437 µM
CC50 (SR; [4]): > 100 µM
log TGI (SR; five doses 10^−4–10^−8 M): −5.70 log M
GI50 (NCI-H23; Homo sapiens, NCI-H23, five doses 10^−4–10^−8 M): 3.09 µM
CC50 (NCI-H23; Homo sapiens, NCI-H23, five doses 10^−4–10^−8 M, read-out: log LC50 (the source's name) (converted)): 93.3 µM
Growth of Cells (%) (NCI-H23): 99.73%
log TGI (NCI-H23; NCI-H23, five doses 10^−4–10^−8 M): −4.95 log M
Growth of Cells (%) (COLO-205): 30.63%
log TGI (COLO-205; COLO-205, five doses 10^−4–10^−8 M): −5.44 log M
GI50 (COLO-205; [5]): 1.95 µM
LC50 (COLO-205; [5]): 6.61 µM
Growth of Cells (%) (HT29): −71.75%
log TGI (HT29; HT29, five doses 10^−4–10^−8 M): −5.40 log M
GI50 (HT29; Homo sapiens, HT-29, HT29, five doses 10^−4–10^−8 M): 1.91 µM
GI50 (SNB-75; [6]): 2 µM
LC50 (SNB-75; [6]): 8.91 µM
log TGI (SNB-75; SNB-75, five doses 10^−4–10^−8 M): −5.38 log M
Growth of Cells (%) (MALME-3M): 40.72%
GI50 (MALME-3M; [2]): 2.29 µM
LC50 (concentration causing 50% cell kill) (MALME-3M; [2]): 8.13 µM
log TGI (MALME-3M; five doses 10^−4–10^−8 M): −5.37 log M
GI50 (UACC-257; Homo sapiens, UACC-257, five doses 10^−4–10^−8 M): 1.74 µM
CC50 (UACC-257; Homo sapiens, UACC-257, five doses 10^−4–10^−8 M, read-out: log LC50 (the source's name) (converted)): 7.94 µM
Growth of Cells (%) (UACC-257): 19.38%
log TGI (UACC-257; UACC-257, five doses 10^−4–10^−8 M): −5.43 log M
GI50 (SK-OV-3; Homo sapiens, SK-OV-3, five doses 10^−4–10^−8 M): 4.9 µM
CC50 (SK-OV-3; Homo sapiens, SK-OV-3, five doses 10^−4–10^−8 M, read-out: log LC50 (the source's name) (converted)): > 100 µM
Growth of Cells (%) (SK-OV-3): 101.94%
log TGI (SK-OV-3; SK-OV-3, five doses 10^−4–10^−8 M): −4.97 log M
Growth of Cells (%) (A498): 91.46%
log TGI (A498; A498, five doses 10^−4–10^−8 M): −4.57 log M
GI50 (A498; Homo sapiens, A498, five doses 10^−4–10^−8 M): 13.5 µM
CC50 (A498; Homo sapiens, A498, five doses 10^−4–10^−8 M, read-out: log LC50 (the source's name) (converted)): 52.5 µM
Growth of Cells (%) (ACHN): 27.40%
GI50 (ACHN; [2]): 1.74 µM
CC50 (ACHN; [4]): 6.31 µM
log TGI (ACHN; five doses 10^−4–10^−8 M): −5.48 log M
GI50 (UO-31; Homo sapiens, UO-31, read-out: log GI50 (converted)): 1.7 µM
CC50 (UO-31; Homo sapiens, UO-31, five doses 10^−4–10^−8 M, read-out: log LC50 (the source's name) (converted)): 6.03 µM
Growth of Cells (%) (UO-31): −82.97%
log TGI (UO-31; UO-31, five doses 10^−4–10^−8 M): −5.49 log M
GI50 (RXF 393; Homo sapiens, RXF 393, five doses 10^−4–10^−8 M): 1.82 µM
CC50 (RXF 393; Homo sapiens, RXF 393, five doses 10^−4–10^−8 M, read-out: log LC50 (the source's name) (converted)): 6.17 µM
Growth of Cells (%) (RXF 393): −16.27%
log TGI (RXF 393; RXF 393, five doses 10^−4–10^−8 M): −5.47 log M
GI50 (PC-3; Homo sapiens, PC-3, five doses 10^−4–10^−8 M): 1.82 µM
CC50 (PC-3; Homo sapiens, PC-3, five doses 10^−4–10^−8 M, read-out: log LC50 (the source's name) (converted)): 6.76 µM
Growth of Cells (%) (PC-3): 53.66%
log TGI (PC-3; PC-3, five doses 10^−4–10^−8 M): −5.45 log M
